Results from PMC9745132, “Visualization of real-time receptor endocytosis in dopamine neurons enabled by NTSR1-Venus knock-in mice” (Frontiers in Cellular Neuroscience, 2022).
Several values for one entry are separate records, joined by “and”; a condition that tells them apart may be missing. Equal entries are not always repeated. Structures can show the parent of a compound that is named as a salt. *1 amine or outer side, *2 acyl side, *3 side chain or, on linkers, in order; H or OH if unused. Where a SMILES comes first, the peptide text is derived from it. [ ]: non-standard residue; d: D form. X1 = NCCCC[C@H](N)CN([C@@H](CCCCN)C(=O)[*:2])[*:1]; Tle = CC(C)(C)[C@H](N)C(=O)O

Assays:
[1] = target: T1, NTSR1-Venus (Mus musculus, UniProt O88319); assay: Multiphoton imaging of NTSR1-Venus internalization in acute SN/VTA brain slices; type: cell-based; conditions: 10 μM on slices recovered in 1 μM SR48692
T1 construct: monitoring endogenous NTSR1-Venus receptor endocytosis could differentiate NTSR1 agonists; endogenous in cells; host or cells: primary hippocampal neurons from homozygous NTSR1-Venus knock-in mice (C57BL/6N background)
T1 sequence (O88319 whole entry): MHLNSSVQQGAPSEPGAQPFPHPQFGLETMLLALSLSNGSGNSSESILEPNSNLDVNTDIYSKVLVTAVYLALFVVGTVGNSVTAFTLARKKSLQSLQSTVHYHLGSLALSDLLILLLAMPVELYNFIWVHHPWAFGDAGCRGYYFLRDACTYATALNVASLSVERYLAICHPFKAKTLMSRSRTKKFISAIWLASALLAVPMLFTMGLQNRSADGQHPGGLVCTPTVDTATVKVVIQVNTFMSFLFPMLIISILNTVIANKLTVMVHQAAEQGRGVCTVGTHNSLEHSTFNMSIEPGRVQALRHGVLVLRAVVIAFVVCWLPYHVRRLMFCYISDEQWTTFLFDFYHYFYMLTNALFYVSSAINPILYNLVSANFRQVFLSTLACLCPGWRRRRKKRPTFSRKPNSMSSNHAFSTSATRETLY
Experimental: Male and female Ntsr1^Venus/Venus mice aged 5 weeks were anesthetized, and 250 μm-thick coronal slices containing substantia nigra pars compacta and ventral tegmental area were prepared. Cutting solution contained (in mM): 87 NaCl, 25 NaHCO3, 25 glucose, 75 sucrose, 2.5 KCl, 1.25 NaH2PO4, 0.5 CaCl2, and 7 MgCl2; bubbled with 5% CO2/95%O2; 4°C. Following cutting, slices were incubated in the same solution for 30 min at 33°C. For control experiments, slices were subsequently incubated in the same solution at room temperature until imaging. For antagonist experiments, slices were subsequently incubated in cutting solution with 1 μM SR48962 until imaging. SR48962 was prepared as a 1 mM stock in water.
Imaging solution referred to as aCSF contained (in mM): 125 NaCl, 2.5 KCl, 2 CaCl2, 1 MgCl2, 25 NaHCO3, 1.25 NaH2PO4, 25 glucose; bubbled with 5% CO2/95% O2; 31–34°C, ∼310 mOsm. For antagonist-only experiments, 1 μM SR48962 was added to the imaging solution. For antagonist plus agonist experiments, a baseline image was taken with no NTSR1 agonist or antagonist in the imaging solution, and subsequently, 10 μM PD149163 [prepared from a stock solution in water] was added to the imaging solution. As a precautionary measure, all components that were exposed to antagonist were rinsed first with 70% ethanol and then water. All components that were exposed to agonist were replaced between experiments.
For two-photon laser scanning microscopy (2PLSM), a 2-photon source (Coherent Ultra II, Santa Clara, CA, USA) was tuned to 920 nm for imaging. […] Both epi and transfluorescence were detected with R9110 photomultiplier tubes (Hamamatsu, Shizuoka, Japan). Laser power measured at the focal plane under the objective was between 8 and 34 mW. […]
To test whether NTSR1 receptors are indeed being bound by endogenous ligand in acute slice, we compared NTSR1 distribution in slices treated with the NTSR1 specific antagonist, SR48692 ([Gully et al., 1993]). […] NTSR1-Venus puncta were then quantified in the acquired image projections by counting vesicle-sized particles (Figure 5E). […]

[2] = target: T2, NTSR1 (Mus musculus, UniProt O88319); assay: Gq activation ebBRET (Gq EMTA, p63RhoGEF-RlucII / rGFP-CAAX) in HEK293 cells, untagged NTSR1; type: cell-based; conditions: mean ± SEM
T2 construct: expressed in transfected cells; host or cells: HEK293 (HEK293SL)
T2 sequence (O88319 whole entry): as above
Excerpt: The mouse coding sequence of NTSR1 was PCR amplified from pCMV6-mNTSR1 (Origene, Rockville, MD, USA) and subcloned upstream from the IRES feature with a STOP codon before IRES into pIRES (Invitrogen, Waltham, MA, USA) and pIRES-Venus vector previously described ([Hamdan et al., 2005]) resulting in expression of either untagged NTSR1 or NTSR1-Venus. […] The pIRES vector was used The rGFP-CAAX BRET and Gq GEMTA biosensors construct were generated as previously described ([Namkung et al., 2016]; [Avet et al., 2022]).
HEK293 clonal cell line (HEK293SL cells), hereafter referred as HEK293 cells, were a gift from S. Laporte (McGill University, Montreal, Quebec, Canada) and previously described ([Namkung et al., 2016]). Cells were maintained in Dulbecco’s Modified Eagle Medium (DMEM, Wisent, Saint-Jean-Baptiste, QC, Canada) supplemented with 10% fetal bovine serum (FBS, Wisent) and 1% antibiotics [100 U/mL penicillin and 100 μg/mL streptomycin (PS); Wisent]. Cells were grown at 37°C in 5% CO2 and 90% humidity and checked for mycoplasma contamination. […] The total quantity of DNA was completed at 1 μg with salmon sperm DNA (Invitrogen, Waltham, MA, USA). […]
Forty-eight hours post-transfection, cells were washed once with phosphate-buffered saline (PBS) then incubated 1 h at 37°C in Tyrode buffer (137 mM NaCI, 0.9 mM KCI, 1 mM MgCI2, 1 1.9 mM NaHCO3, 3.6 mM NaH2PO4, 25 mM HEPES, 5.5 mM Glucose, and 1 mM CaCI2, pH 7.4). […] Bioluminescence resonance energy transfer (BRET) was then measured between RlucII (BRET energy donor) and rGFP (enhanced bystander ebBRET acceptor)–tagged proteins. BRET values were read for 1 s per well using a Mithras™ LB940 Multimode Microplate Reader (Berthold Technologies, Bad Wildbad, Germany) for concentration–response curves. ebBRET values were obtained by calculating the ratio of the light emitted by the energy acceptor over the light emitted by the energy donor (donor 410 ± 70 nm/acceptor 515 ± 20 nm). […] They were then fitted and analyzed in GraphPad Prism (v9.0, GraphPad Software, Inc., San Diego, CA, USA). […]

Q: With CCOC(=O)[C@H](CC(C)C)NC(=O)[C@@H](NC(=O)[C@H](Cc1c[nH]c2ccccc12)NC(=O)[C@@H]1CCCN1C(=O)[C@H](CCCCN)NC[C@@H](N)CCCCN)C(C)(C)C [PD149163, PD149163 tetrahydrochloride hydrate] (H-[X1]PW[Tle]L-OEt; N-terminus and C-terminus assumed) as the compound, how does the “vesicle-sized particle counts (NTSR1-Venus puncta) vs antagonist-only treated slices” value [1] read?
A: significantly higher than antagonist-only treated slices at 15, 30, 45, and 60 min

Q: What about the “vesicle-sized particle counts (NTSR1-Venus puncta) vs control slices” value [1] of the same compound?
A: significantly higher than controls at 30, 45, and 60 min

Q: What about the EC50 ([2]; given as LogEC50 (negative sign), read-out: Potency [LogEC50 (M)], Gq activation, NTSR1 (converted)) of the same compound?
A: 2.81e-08 M

Q: And the “Efficacy (Raw BRET), Gq activation, NTSR1” value [2]?
A: 0.220 Raw BRET and 0.220 ± 0.013 Raw BRET
